Measured values published in patent publication US12188086B2, “Nucleotide analogues and use thereof for nucleic acid sequencing and analysis preliminary class” (The Trustees of Columbia University in the City of New York, priority 2018, dated 2025).

Experiments:
[1] = Compatibility test: stability of SS linker on sodium dithionite treatment (MALDI-TOF MS); assay type: physicochemical; details: 25 mM Na2S2O4 in PBS pH 7.4, 30 min at 37° C.
Experimental: Disclosed herein are the results of a compatibility test was performed using 3′-O-SS-dATP-SS-Rox (cal: MW1344.36 Da, observed 1345.61) as model compound. 2 μl of 0.1 mM 3′-O-SS-dATP-SS-Rox was treated with 100 μL of freshly made 25 mM Na2S2O4 (in PBS buffer [pH 7.4]) and the mixture was kept shaking for 30 min at 37° C. Then desalination was carried out with a ZipTip, and the product was subjected to MALDI TOF MS measurement. […] The result proves that the disulfide linker is stable at much higher concentration of sodium dithionite and at longer reaction time than necessary to cleave the Azo linker.
An additional compatibility test was conducted on 3′-SS-dC extended ssDNA. The single base extension experiment was carried out by adding 20 pmol Exon 8 template, 60 pmol primer (M.W. 5144), 2 mM MnCl2 and 2 U Therminator 9 polymerase in 20 μl 1×Pol buffer in each PCR reaction tube which were subject to PCR thermocycles (65° C. for 30″ 45° C. for 30″, 38 cycles). After completion of the incorporation, NaS2O4 solution was added to the reaction tube to a final concentration of 20 mM and incubated at room temperature for 40 min. Then the reaction mixture was treated with a Clean & Concentrator column to purify ssDNA. The resulting oligonucleotide was subject to MALDI-TOF MS measurement. […]

[2] = system: Therminator IX DNA polymerase; experiment: Single base extension reaction, checked by MALDI-TOF MS; assay type: biochemical; parameters: efficiency of primer strand extension: concentration or dose not given beside the values; details: for efficiency of primer strand extension: no primer peak is visible
Experimental: A single base DNA extension reaction (SBE) was performed with 3′-O-SS (DTM)-dTTP-PEG4-Azo-Cy5, using a primer (5′-[…]-3′ [SEQ ID 1]) and a synthetic DNA template (5′-[…]-3′ [SEQ ID 2]) based on a portion of exon 8 of the human p53 gene as follows. The bold letters in the template represent the extension position for the primers. 2 μL of 10× concentrated buffer, 1 μL of primer, E8TT (MW: 5163, 100 μM), 3 μL of Exon 8 template (20 μM), 1 μL of nucleotide (3′-O-t-butyl-SS-dTTP-PEG4-Azo-Cy5, 432 μM), 1 μL of Therminator IX DNA Polymerase, T9 (10 U/λ) and 12 μL of dH2O were combined in a total volume of 20 μL. The reaction consisted of 38 cycles at 65° C. for 30 seconds and 45° C. for 30 seconds. Single base extension was confirmed by MALDI-TOF MS as indicated by the major peak at 6791.8 Da (calc'd, 6782.4 Da) in the spectrum.
Synthesized 3′-O-t-butyl-SS-dATP-PEG4-Azo-Biotin was used to perform a single-base extension reaction. The primer E8AA-6084 (5′-[…]-3′ at 6084 Da), exon 8 template (see sequence above) and Therminator IX DNA polymerase (T9) were added along with the modified nucleotides. In the 3′-O-t-butyl-SS-dATP-PEG4-Azo-Biotin (A7) incorporation reaction, the primer was extended to 7327.4 Da (expected, 7326.3 Da). No primer peak was detected using MALDI TOF MS after 38 cycles of reaction.
Extension reactions consisted of 3 μl template (60 μM), 1 μl primer (100 μM), 2 μl of one of the above ddNTP analogues (100 μM), 2 μl 10× Thermo Pol Buffer, 1 μl Therminator IX DNA polymerase (10 unit/μl) and 11 μl water. Extension was performed in a thermal cycler and consisted of 1 min denaturation at 65° C., followed by 38 cycles of 30 sec at 65° C., 30 sec at 45° C. and 30 sec at 65° C., with a final 3 min extension at 72° C., and storage at 4° C. Desalting was carried out using Oligo Clean & Concentrator (Zymo Research) according to the manufacturer's instructions prior to checking results of polymerase reaction by MALDI-TOF-MS.

[3] = Sodium dithionite cleavage of azo linker on single base extended primer (MALDI-TOF MS); assay type: physicochemical
Experimental: The azo cleavage reaction was performed on single base extended primer (E8TT+3′-O-t-butyl-SS-dTMP-PEG4-Azo-Cy5, 6782.4 Da). A 1M stock solution of Na2S2O4 was prepared in 1×PBS buffer (pH 7.4). 1.25 μL Na2S2O4 solution was added to the extended primer solution (20 μL, 32 μM) along with 28.75 μL of 1×PBS buffer. […] Afterwards, reaction mixtures were purified with a ZipTip and concentrated using a Speed Vac. The size of the cleaved extended primer was characterized by MALDI-TOF MS as 6009.44 Da (calc'd: 6008.9 Da).
Single base extended primers (6084ExAA+3′-O-t-butyl-SS-dAMP-PEG4-Azo-Biotin, 7327.4 Da) was treated with 25 mM sodium dithionite in 1×PBS buffer. […] The azo cleaved product reflects a molecular weight of 6951.1 Da which agrees with the expected value of 6952.3 Da. […]

[4] = THP cleavage of SS linker / 3′ blocking group on extended primer (MALDI-TOF MS); assay type: physicochemical
Experimental: Tris(hydroxypropyl)phosphine (THP) (1 μL, 1 mM) was added to the azo cleaved extended primer (9 μL, 15 μM) (E8TT+3′-O-t-butyl-SS-dTMP-PEG4-aniline, 6009.44 Da). […] After the spin column-based nucleic acid purification (ZymoPURE Oligo Clean & Concentrator), the product was confirmed by MALDI-TOF MS: 5881.4 Da (calc'd: 5874.9 Da). […]

Thermo Sequenase = Thermo Sequenase (Thermus aquaticus, UniProt P19821, F272M/F667Y); details: read-out: concentration that produces the half maximum fluorescent intensity; 0.3 μM single fluorescein labeled self-primed template, 10 pH dCTP, ddCTP 0 to 10 μM
Thermo Sequenase, sequence (P19821 272-832 F272M/F667Y): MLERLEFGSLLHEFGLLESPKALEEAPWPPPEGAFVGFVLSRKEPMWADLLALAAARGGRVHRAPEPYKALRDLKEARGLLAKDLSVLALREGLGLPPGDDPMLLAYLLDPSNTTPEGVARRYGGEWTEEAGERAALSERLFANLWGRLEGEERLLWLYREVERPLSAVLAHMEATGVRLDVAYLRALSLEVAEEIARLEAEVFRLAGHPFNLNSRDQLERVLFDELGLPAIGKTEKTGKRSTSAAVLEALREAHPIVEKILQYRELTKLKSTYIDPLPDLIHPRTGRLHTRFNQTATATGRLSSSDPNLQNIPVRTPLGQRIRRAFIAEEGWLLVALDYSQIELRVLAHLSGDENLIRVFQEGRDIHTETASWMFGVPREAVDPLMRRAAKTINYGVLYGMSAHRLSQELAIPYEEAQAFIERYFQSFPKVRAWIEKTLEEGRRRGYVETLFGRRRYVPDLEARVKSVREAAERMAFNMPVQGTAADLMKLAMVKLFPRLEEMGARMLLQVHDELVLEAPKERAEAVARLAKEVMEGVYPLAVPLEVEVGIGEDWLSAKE
Experimental: A. Varying concentrations of ddCTP (0 to 10 μM) were added to solutions containing Thermo Sequenase, 0.3 μM single fluorescein labeled self-primed template and 10 pH dCTP. […] B. The same experiments performed with the tagged ddCTP (0 to 5 μM) shown in FIG. 79 in the presence of the same template and 5 μM dCTP.
Extension reactions were prepared with the primer, Thermo Sequenase, dCTP and various dilutions of ddCTP or tagged ddCTP. First, a series of SBE reactions were carried out with final ddCTP concentrations ranging from 0 to 10 μM at a concentration of dCTP of 10 μM and 0.3 pH of labeled primer. Under these conditions, the primer is extended by the incorporation of dCTP until it encounters ddCTP incorporation. […] Fluorescence intensity was measured on a SpectraMax3 Microplate Reader (Molecular Devices, LLC).

[5] = 25 mM sodium dithionite at 45° C. for 1 minute

3′-O-SS-dATP-SS-Rox
integrity in the presence of Na2S2O4 [1]: no cleavage or degradation was observed

3′-O-t-Butyl-SS(DTM)-dATP-PEG4-Azo-Biotin [3′-O-t-butyl-SS-dATP-PEG4-Azo-Biotin]
efficiency of primer strand extension [2]: ~100%
cleavage of azo linker on extended primer ([3]; 25 mM sodium dithionite in 1×PBS, 37° C. for 10 min): can be cleaved efficiently

3′-O-t-Butyl-SS(DTM)-dTTP-PEG4-Azo-Cy5 [3′-O-t-butyl-SS-dTTP-PEG4-Azo-Cy5]
incorporation rate ([2]; 38 cycles at 65° C. for 30 seconds and 45° C. for 30 seconds, no primer peak observed): 100%
cleavage of azo linker on extended primer ([3]; 25 mM sodium dithionite at 37° C. for 20 minutes): complete cleavage
removal of 3′ blocking group ([4]; 1 mM THP for 5 minutes at 65° C.): removed the blocking group with high efficiency

Nc1ccn([C@H]2CC[C@@H](COP(=O)(O)OP(=O)(O)OP(=O)(O)O)O2)c(=O)n1 [ddCTP]
IC50 (Thermo Sequenase): ~0.5 µM

ddATP-7-Azo-Biotin
efficiency of primer strand extension [2]: ~100%
cleavage of azo linker on extended primer [3, 5]: complete cleavage

ddCTP-5-SS-Biotin
efficiency of primer strand extension [2]: ~100%
cleavage of SS linker on extended primer ([4]; THP): complete cleavage

ddGTP-7-SS-Cy5
efficiency of primer strand extension [2]: ~100%

ddTTP-5-Azo-Cy5
efficiency of primer strand extension [2]: ~100%
cleavage of azo linker on extended primer [3, 5]: complete cleavage
